# Earlier results in patent publication US20100104638A1 (priority 2008, published 2010).
structure (smiles),measurement,value
"CC(=O)Nc1ccc(O)cc1 [Acetaminophen, N-(4-hydroxyphenyl) acetamide]",Aqueous solubility,about 14 mg/ml
